These are literature values, as cited in patent publication US20130035389A1, “METHODS FOR TREATING MYELODYSPLASTIC SYNDROME WITH EZATIOSTAT” (Telik, Inc., priority 2011, published 2013).

Data set [1] relates to hematopoietic progenitor cells. The note with it: in vitro.
In a further data set the target is GST P1-1 (Homo sapiens, UniProt P09211). The note with it: leads to de-repression of jun kinase and activation of c-Jun.
The test system of a further data set is leukemia cells. The note with it: in vitro.
The next data set has as its system myelodysplastic syndrome. As to conditions: low risk and intermediate-1 risk MDS patients, oral, phase II study.

GST P1-1, sequence (P09211 2-210 limits assumed): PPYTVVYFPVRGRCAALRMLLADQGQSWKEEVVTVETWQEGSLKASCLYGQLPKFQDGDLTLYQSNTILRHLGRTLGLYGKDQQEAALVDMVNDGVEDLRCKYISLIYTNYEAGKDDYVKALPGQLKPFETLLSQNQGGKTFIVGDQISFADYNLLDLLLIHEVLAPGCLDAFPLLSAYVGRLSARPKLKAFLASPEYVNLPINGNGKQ

Take `CCOC(=O)[C@@H](N)CCC(=O)N[C@@H](CSCc1ccccc1)C(=O)N[C@@H](C(=O)OCC)c1ccccc1` [Ezatiostat, ethyl (2S)-2-amino-5-[[(2R)-3-benzylsulfanyl-1-[[(1R)-2-ethoxy-2-oxo-1-phenylethyl]amino]-1-oxopropan-2-yl]amino]-5-oxopentanoate]: in data set [1], the “effect on growth and differentiation of hematopoietic progenitor cells” value was “stimulate growth and differentiation of hematopoietic progenitor cells”. Besides, the “inhibition of GST P1-1” value on GST P1-1 is “inhibits GST P1-1”. In addition, the “apoptosis in leukemia cells” value in the data set with leukemia cells is “induce apoptosis in leukemia cells”.

As for `CCOC(=O)[C@@H](N)CCC(=O)N[C@@H](CSCc1ccccc1)C(=O)N[C@@H](C(=O)OCC)c1ccccc1.Cl` [ezatiostat hydrochloride], the clinical response entry with myelodysplastic syndrome is recorded as “multilineage responses”.
